# Source: BindingDB's records for doi:10.1021/jm960441m (Upjohn, 1997)
# Legend:
# [1] = molecular target: T1, Dimer of Gag-Pol polyprotein [489-587] (Human immunodeficiency virus 1, UniProt P04585); assay: Protease Inhibition Assay; settings: pH 5; 22 °C
# T1 construct: 489-587
# Source text: (§1) HIV-1 protease was purified and refolded from E. coli inclusion bodies. […] In the presence of HIV-l protease, the substrate is rapidly cleaved into two parts. The biotinylated amino terminal fragment binds to the avidin beads while the FITC-containing carboxy1 terminal fragment is removed through the membrane. […] The bound fluorescence is obtained by processing on an IDEXX Screen Machine. Determination of Ki values with this assay requires analysis under conditions in which substrate concentration resides substantially below Km and the inhibitor concentrations greatly exceeds the Ki value and the enzyme concentration.
# [2] = molecular target: T2, Dimer of Gag-Pol polyprotein [489-587] (Human immunodeficiency virus 1, UniProt P12497); assay: Protease Inhibition Assay
# T2 construct: 489-587
# Source text: as §1
SMILES,Ki [1],Ki [2]
"N#Cc1cccc(S(=O)(=O)Nc2cccc(C(c3c(O)c4c(oc3=O)CCCCCC4)C3CC3)c2)c1 (stereo not drawn) [3-cyano-N-{3-[cyclopropyl({4-hydroxy-2-oxo-2H,5H,6H,7H,8H,9H,10H-cycloocta[b]pyran-3-yl})methyl]phenyl}benzene-1-sulfonamide]",0.6 nM,–
"O=c1oc2c(c(O)c1C(c1cccc(NS(=O)(=O)c3ccc([N+](=O)[O-])cc3)c1)C1CC1)CCCCCC2 (stereo not drawn) [N-{3-[cyclopropyl({4-hydroxy-2-oxo-2H,5H,6H,7H,8H,9H,10H-cycloocta[b]pyran-3-yl})methyl]phenyl}-4-nitrobenzene-1-sulfonamide]",–,2.7 nM
"O=c1oc2c(c(O)c1C(c1cccc(NS(=O)(=O)c3cccc4ccccc34)c1)C1CC1)CCCCCC2 (stereo not drawn) [N-{3-[cyclopropyl({4-hydroxy-2-oxo-2H,5H,6H,7H,8H,9H,10H-cycloocta[b]pyran-3-yl})methyl]phenyl}naphthalene-1-sulfonamide]",–,5.5 nM
"O=c1oc2c(c(O)c1C(c1cccc(NS(=O)(=O)c3ccc4ccccc4c3)c1)C1CC1)CCCCCC2 (stereo not drawn) [N-{3-[cyclopropyl({4-hydroxy-2-oxo-2H,5H,6H,7H,8H,9H,10H-cycloocta[b]pyran-3-yl})methyl]phenyl}naphthalene-2-sulfonamide]",–,4.1 nM
"O=c1oc2c(c(O)c1C(c1cccc(NS(=O)(=O)c3cnccn3)c1)C1CC1)CCCCCC2 (stereo not drawn) [N-{3-[cyclopropyl({4-hydroxy-2-oxo-2H,5H,6H,7H,8H,9H,10H-cycloocta[b]pyran-3-yl})methyl]phenyl}pyrazine-2-sulfonamide]",–,0.2 nM
"O=c1oc2c(c(O)c1C(c1cccc(NS(=O)(=O)c3ncccn3)c1)C1CC1)CCCCCC2 (stereo not drawn) [N-{3-[cyclopropyl({4-hydroxy-2-oxo-2H,5H,6H,7H,8H,9H,10H-cycloocta[b]pyran-3-yl})methyl]phenyl}pyrimidine-2-sulfonamide]",–,0.8 nM
"O=c1oc2c(c(O)c1C(c1cccc(NS(=O)(=O)c3ccc4ccccc4n3)c1)C1CC1)CCCCCC2 (stereo not drawn) [N-{3-[cyclopropyl({4-hydroxy-2-oxo-2H,5H,6H,7H,8H,9H,10H-cycloocta[b]pyran-3-yl})methyl]phenyl}quinoline-2-sulfonamide]",–,0.4 nM
"O=c1oc2c(c(O)c1C(c1cccc(NS(=O)(=O)c3cccs3)c1)C1CC1)CCCCCC2 (stereo not drawn) [N-{3-[cyclopropyl({4-hydroxy-2-oxo-2H,5H,6H,7H,8H,9H,10H-cycloocta[b]pyran-3-yl})methyl]phenyl}thiophene-2-sulfonamide]",–,6.3 nM
